Source: PMC3961306, “Comparison of the Cancer Gene Targeting and Biochemical Selectivities of All Targeted Kinase Inhibitors Approved for Clinical Use” (PLoS ONE, 2014)

Columns and labels:
Assay in all cases: Kinase profiling in a biochemical assay panel (mobility shift assays and ELISA), %-inhibition at 1 μM; selectivity entropy
[1] = molecular target: panel of more than 300 wild-type and mutant kinases (313 kinase panel) (Homo sapiens, UniProt P16234, T674I)
[2] = molecular target: T1, panel of more than 300 wild-type and mutant kinases (313 kinase panel) (Homo sapiens, UniProt P41743); conditions: kinase PKCι; 1 μM
T1 sequence (P41743 1-596): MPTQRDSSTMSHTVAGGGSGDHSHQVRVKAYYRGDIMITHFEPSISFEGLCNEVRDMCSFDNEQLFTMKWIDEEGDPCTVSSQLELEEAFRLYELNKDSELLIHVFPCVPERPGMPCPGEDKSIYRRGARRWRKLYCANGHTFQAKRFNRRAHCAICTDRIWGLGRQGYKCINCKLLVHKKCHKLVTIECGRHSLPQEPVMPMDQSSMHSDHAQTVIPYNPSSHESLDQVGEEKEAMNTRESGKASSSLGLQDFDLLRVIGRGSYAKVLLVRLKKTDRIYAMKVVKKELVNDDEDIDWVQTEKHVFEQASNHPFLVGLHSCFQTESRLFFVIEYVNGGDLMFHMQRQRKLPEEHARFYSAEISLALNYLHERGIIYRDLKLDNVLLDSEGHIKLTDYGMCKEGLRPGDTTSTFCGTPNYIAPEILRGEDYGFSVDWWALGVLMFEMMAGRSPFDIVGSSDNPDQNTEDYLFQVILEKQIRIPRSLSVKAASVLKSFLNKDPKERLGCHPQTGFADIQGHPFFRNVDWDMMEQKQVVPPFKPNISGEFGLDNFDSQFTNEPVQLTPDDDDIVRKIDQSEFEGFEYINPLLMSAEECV

[3] = molecular target: panel of more than 300 wild-type and mutant kinases (313 kinase panel) (Homo sapiens, UniProt P45983); conditions: kinase JNK1; compound at 1 μM
Chain of panel of more than 300 wild-type and mutant kinases (313 kinase panel) (Homo sapiens, UniProt P45983) (P45983 whole entry, change not shown): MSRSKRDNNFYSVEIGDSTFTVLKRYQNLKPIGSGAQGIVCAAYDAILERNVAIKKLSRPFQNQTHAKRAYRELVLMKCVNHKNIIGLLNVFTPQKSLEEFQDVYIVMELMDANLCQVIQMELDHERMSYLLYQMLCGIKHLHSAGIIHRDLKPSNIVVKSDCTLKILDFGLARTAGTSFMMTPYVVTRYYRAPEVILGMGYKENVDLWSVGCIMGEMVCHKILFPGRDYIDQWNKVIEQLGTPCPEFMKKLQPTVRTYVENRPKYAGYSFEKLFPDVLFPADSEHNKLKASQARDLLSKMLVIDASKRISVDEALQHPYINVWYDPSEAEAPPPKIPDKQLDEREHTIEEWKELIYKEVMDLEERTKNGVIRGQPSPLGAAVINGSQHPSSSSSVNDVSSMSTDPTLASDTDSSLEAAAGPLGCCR

[4] = molecular target: panel of more than 300 wild-type and mutant kinases (313 kinase panel) (Homo sapiens, UniProt P51812); conditions: kinase RSK2; 1 μM
[5] = molecular target: T2, panel of more than 300 wild-type and mutant kinases (313 kinase panel) (Homo sapiens, UniProt P51817); conditions: kinase PRKX; 1 μM
T2 sequence (P51817 1-358): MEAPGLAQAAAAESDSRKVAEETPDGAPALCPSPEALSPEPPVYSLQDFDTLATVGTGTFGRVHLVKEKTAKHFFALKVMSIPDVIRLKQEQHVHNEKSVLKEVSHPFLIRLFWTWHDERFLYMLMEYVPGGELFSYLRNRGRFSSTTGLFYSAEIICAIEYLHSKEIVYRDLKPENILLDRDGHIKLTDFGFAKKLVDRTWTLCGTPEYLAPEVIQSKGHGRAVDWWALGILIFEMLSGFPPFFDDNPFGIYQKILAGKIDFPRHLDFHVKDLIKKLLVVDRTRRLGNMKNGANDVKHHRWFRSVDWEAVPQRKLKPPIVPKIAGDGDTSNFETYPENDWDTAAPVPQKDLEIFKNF

[6] = molecular target: T3, panel of more than 300 wild-type and mutant kinases (313 kinase panel) (Homo sapiens, UniProt Q8IWQ3); conditions: kinase BRSK2; 1 μM compound
T3 sequence (Q8IWQ3 1-736): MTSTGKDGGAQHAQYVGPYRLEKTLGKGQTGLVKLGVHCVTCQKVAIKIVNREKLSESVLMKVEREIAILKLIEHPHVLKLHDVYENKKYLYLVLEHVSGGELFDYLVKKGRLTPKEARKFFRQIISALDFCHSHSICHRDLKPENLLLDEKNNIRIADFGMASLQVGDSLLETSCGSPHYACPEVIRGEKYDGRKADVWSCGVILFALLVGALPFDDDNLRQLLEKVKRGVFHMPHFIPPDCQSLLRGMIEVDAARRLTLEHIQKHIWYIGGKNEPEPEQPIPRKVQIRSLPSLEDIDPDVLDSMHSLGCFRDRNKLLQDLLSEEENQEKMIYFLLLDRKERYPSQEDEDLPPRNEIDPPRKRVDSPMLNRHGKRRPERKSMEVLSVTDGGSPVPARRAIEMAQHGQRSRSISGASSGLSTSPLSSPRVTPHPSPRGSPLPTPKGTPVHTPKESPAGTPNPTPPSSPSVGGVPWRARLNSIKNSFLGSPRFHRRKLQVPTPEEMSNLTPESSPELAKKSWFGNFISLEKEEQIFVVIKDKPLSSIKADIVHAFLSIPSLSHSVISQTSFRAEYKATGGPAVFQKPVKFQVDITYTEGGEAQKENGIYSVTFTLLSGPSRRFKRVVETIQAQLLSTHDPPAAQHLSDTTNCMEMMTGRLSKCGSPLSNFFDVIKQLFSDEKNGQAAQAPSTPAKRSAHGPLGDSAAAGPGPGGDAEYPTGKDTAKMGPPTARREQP

[7] = molecular target: panel of more than 300 wild-type and mutant kinases (313 kinase panel) (Homo sapiens, UniProt Q96SB4); conditions: kinase SRPK1; 1 μM
Chain of panel of more than 300 wild-type and mutant kinases (313 kinase panel) (Homo sapiens, UniProt Q96SB4) (Q96SB4 whole entry, change not shown): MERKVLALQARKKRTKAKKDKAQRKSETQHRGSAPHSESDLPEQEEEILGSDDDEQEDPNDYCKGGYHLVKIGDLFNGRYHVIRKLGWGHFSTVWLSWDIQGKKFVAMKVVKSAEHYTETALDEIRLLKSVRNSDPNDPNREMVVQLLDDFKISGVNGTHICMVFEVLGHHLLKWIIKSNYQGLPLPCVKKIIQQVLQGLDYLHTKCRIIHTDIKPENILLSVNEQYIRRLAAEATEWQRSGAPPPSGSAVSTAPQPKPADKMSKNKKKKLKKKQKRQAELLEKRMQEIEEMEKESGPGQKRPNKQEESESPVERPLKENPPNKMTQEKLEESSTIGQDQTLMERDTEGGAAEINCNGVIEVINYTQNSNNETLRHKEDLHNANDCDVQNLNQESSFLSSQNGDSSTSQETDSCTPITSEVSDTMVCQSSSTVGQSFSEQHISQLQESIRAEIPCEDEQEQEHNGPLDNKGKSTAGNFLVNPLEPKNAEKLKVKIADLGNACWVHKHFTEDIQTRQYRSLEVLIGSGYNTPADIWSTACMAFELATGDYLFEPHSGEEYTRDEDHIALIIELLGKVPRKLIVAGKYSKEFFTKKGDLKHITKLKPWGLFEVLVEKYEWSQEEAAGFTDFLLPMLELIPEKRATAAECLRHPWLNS

[8] = molecular target: panel of more than 300 wild-type and mutant kinases (313 kinase panel) (Homo sapiens, UniProt Q9P289); conditions: kinase MST4; 1 μM
Chain of panel of more than 300 wild-type and mutant kinases (313 kinase panel) (Homo sapiens, UniProt Q9P289) (Q9P289 whole entry, change not shown): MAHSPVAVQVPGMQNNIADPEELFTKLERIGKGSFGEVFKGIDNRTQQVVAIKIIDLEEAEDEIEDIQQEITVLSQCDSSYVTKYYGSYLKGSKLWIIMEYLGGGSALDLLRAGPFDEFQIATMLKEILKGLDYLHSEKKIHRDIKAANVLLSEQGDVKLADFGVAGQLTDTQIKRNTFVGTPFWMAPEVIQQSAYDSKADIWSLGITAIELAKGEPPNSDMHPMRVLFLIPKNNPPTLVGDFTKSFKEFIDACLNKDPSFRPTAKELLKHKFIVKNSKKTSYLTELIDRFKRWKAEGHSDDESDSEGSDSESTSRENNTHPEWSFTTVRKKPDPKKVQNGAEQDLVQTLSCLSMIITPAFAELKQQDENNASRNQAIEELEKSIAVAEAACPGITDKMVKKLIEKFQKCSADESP

Chain of panel of more than 300 wild-type and mutant kinases (313 kinase panel) (Homo sapiens, UniProt P16234, T674I) (P16234 24-1089 T674I): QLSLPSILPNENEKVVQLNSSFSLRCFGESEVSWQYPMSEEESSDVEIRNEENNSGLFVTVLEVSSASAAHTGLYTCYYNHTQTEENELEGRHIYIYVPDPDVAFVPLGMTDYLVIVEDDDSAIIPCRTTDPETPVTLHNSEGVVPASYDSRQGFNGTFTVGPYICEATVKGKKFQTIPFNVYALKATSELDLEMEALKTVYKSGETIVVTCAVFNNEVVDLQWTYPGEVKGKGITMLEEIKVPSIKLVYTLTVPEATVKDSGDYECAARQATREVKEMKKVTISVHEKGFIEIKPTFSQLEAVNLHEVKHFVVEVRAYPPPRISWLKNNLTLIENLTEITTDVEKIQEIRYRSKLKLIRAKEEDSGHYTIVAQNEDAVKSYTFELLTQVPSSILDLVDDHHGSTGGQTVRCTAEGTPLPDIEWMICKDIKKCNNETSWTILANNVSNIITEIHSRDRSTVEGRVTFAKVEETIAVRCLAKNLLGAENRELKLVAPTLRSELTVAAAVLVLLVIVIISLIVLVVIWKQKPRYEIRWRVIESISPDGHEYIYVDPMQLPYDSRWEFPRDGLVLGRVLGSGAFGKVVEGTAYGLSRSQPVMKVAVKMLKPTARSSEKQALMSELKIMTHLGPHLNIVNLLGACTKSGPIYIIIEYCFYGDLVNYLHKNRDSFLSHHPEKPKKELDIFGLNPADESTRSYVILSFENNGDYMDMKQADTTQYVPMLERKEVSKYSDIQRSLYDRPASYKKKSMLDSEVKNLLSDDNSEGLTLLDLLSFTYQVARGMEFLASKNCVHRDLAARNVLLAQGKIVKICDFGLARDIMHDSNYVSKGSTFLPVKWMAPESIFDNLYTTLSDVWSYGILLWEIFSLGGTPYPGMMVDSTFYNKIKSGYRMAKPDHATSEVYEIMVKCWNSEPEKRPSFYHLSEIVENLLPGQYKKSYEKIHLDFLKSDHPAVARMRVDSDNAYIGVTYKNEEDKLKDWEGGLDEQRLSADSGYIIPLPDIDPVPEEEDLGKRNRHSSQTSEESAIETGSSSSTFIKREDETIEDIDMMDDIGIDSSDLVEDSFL

| Compound | %-inhibition of PDGFRα(T674I) ([1]; 1 µM) | %-inhibition of PKCι [2] | %-inhibition of JNK1 [3] | %-inhibition of RSK2 [4] | %-inhibition of PRKX [5] | %-inhibition, BRSK2 [6] | %-inhibition of SRPK1 [7] | %-inhibition of MST4 [8] | %-inhibition of PDGFRα(T674I) ([1]; kinase PDGFRα(T674I), 1 μM) |
| --- | --- | --- | --- | --- | --- | --- | --- | --- | --- |
| Cc1cn(-c2cc(NC(=O)c3ccc(C)c(Nc4nccc(-c5cccnc5)n4)c3)cc(C(F)(F)F)c2)cn1 [nilotinib] | 45% | -8% | 36% | 13% | 6% | -0.27% | 3% | 1.77% | – |
| COc1cc2nccc(Oc3ccc(NC(=O)C4(C(=O)Nc5ccc(F)cc5)CC4)cc3)c2cc1OC [cabozantinib] | – | 15% | -2.85% | -3.61% | -2.42% | 5.62% | 37% | -1.74% | 97% |
